One data set concerns Ebola Zaire Virus. The data set is classed as cell-based, Ebola virus (strain Zaire).
Another data set relates to Marburg Ci67. In kind it is cell-based, Marburg virus.
The conditions of data set [1]: mouse, in vivo.
The test system of data set [2] is Ebola virus (strain Zaire). On the set-up: species or system Balb/c mice. Conditions: mouse, in vivo.
Another data set deals with Ebola Zaire. Also on record: species or system C57Bl/6 mice. Conditions: mouse, in vivo.
The next data set has as its system Marburg Ravn. On the set-up: species or system Balb/c mice. Conditions: mouse, in vivo.
The conditions of data set [3]: mouse.

Turning to `CCCOCCCCCCN1C[C@H](O)[C@@H](O)[C@H](O)[C@H]1CO` [Compound N7-O-DNJ, N-(7-Oxadecyl)deoxynojirimycin], the values for the IC50 in the data set on Ebola Zaire Virus and with Marburg Ci67 were 20 µM and 50 µM, respectively.

As for `COCCCCCCCCCN1C[C@H](O)[C@@H](O)[C@H](O)[C@H]1CO` [Compound N9-DNJ, N-(9-Methoxynonyl) deoxynojirimycin], the IC50 – broadly, the concentration that inhibits the measured activity by half – amounted to 16 µM with Ebola Zaire Virus and 32 µM in the data set with Marburg Ci67. In data set [1], the “weight loss compared to vehicle only control” value is on record as “did not show any significant signs of weight loss”.

For `[N-]=[N+]=Nc1ccc(NCCCCCCN2C[C@H](O)[C@@H](O)[C@H](O)[C@H]2CO)c([N+](=O)[O-])c1` [NAP-DNJ, N—(N-{4′-azido-2′-nitrophenyl}-6-aminohexyl)deoxynojirimycin], the IC50 with Ebola Zaire Virus worked out at 6 µM. This compound also returned an IC50 in the data set with Marburg Ci67 of 6 µM. This compound came in with a survival rate in data set [2] of 71%. Also, the “protection against Ebola virus (survival)” value in the data set on Ebola Zaire is recorded as “significant protection”. Besides, the “protection against Marburg virus (survival)” value in the data set on Marburg Ravn was “protection”. Moreover, in data set [1], the “reversibility of symptoms after end of treatment” value is reported as “symptoms promptly ceased when treatment was done”, the weight loss result is “did not show signs of weight loss” and the “weight loss compared to vehicle only control” value is “did not show any significant signs of weight loss”. The “weight loss or adverse effects in vivo” value in data set [3] was “no weight loss or adverse effects observed”.

Consider `CCCCN1C[C@H](O)[C@@H](O)[C@H](O)[C@H]1CO` [NB-DNJ, N-Butyl deoxynojirimycin], for which the IC50 in the data set on Ebola Zaire Virus amounted to 32 µM. Moreover, the “weight loss compared to vehicle only control” value in data set [1] is “did not show any significant signs of weight loss”.

`CCCCCCCCCN1C[C@H](O)[C@@H](O)[C@H](O)[C@H]1CO` [NN-DNJ, N-Nonyl deoxynojirimycin] displayed an IC50 in the data set on Ebola Zaire Virus of 12 µM.

Source of the values: patent US20110065754A1 (priority 2009, published 2011).
